# According to PMC10288926 (Journal of Enzyme Inhibition and Medicinal Chemistry, 2023):
# Like-named read-outs stand apart in the source and are kept apart here.
# Experiments:
# ROS1 = ROS1 (Homo sapiens, UniProt P08922); assay: HTRF KinEASE-TK kinase inhibitory assay, ROS1; type: biochemical; conditions: for inhibition at 1 µM: read-out: ROS1 Inhibition (1μM); for ROS1 Inhibition (1μM): kinase inhibition % at 1 μM
# ALK^WT = ALK^WT (Homo sapiens, UniProt Q9UM73); assay: HTRF KinEASE-TK kinase inhibitory assay, ALK wild type; type: biochemical; conditions: for inhibition at 1 µM: read-out: ALK Inhibition (1μM); for ALK Inhibition (1μM): kinase inhibition % at 1 μM
# c-MET = c-MET (Homo sapiens, UniProt P08581); assay: HTRF kinase inhibitory assay, c-MET; type: biochemical; conditions: for inhibition at 1 µM: read-out: c-MET Inhibition (1μM); for c-MET Inhibition (1μM): kinase inhibition % at 1 μM
# [1] = tested on: HCC-78 cell line harbouring SLC34A2-ROS1 fusion; assay: Antiproliferative MTT assay, HCC-78; type: cell-based, human; conditions: read-out: Cellular IC50 (μM) HCC-78
# [2] = tested on: NCI-H3122 cell line harbouring EML4-ALK fusion; assay: Antiproliferative MTT assay, NCI-H3122; type: cell-based, human; conditions: read-out: Cellular IC50 (μM) NCI-H3122
# [3] = average of two independent experiments
# [4] = read-out: ROS1 IC50, average of two independent experiments
# [5] = MTT, 72 h, mean of at least three independent experiments
# Chain of c-MET (P08581 25-1390): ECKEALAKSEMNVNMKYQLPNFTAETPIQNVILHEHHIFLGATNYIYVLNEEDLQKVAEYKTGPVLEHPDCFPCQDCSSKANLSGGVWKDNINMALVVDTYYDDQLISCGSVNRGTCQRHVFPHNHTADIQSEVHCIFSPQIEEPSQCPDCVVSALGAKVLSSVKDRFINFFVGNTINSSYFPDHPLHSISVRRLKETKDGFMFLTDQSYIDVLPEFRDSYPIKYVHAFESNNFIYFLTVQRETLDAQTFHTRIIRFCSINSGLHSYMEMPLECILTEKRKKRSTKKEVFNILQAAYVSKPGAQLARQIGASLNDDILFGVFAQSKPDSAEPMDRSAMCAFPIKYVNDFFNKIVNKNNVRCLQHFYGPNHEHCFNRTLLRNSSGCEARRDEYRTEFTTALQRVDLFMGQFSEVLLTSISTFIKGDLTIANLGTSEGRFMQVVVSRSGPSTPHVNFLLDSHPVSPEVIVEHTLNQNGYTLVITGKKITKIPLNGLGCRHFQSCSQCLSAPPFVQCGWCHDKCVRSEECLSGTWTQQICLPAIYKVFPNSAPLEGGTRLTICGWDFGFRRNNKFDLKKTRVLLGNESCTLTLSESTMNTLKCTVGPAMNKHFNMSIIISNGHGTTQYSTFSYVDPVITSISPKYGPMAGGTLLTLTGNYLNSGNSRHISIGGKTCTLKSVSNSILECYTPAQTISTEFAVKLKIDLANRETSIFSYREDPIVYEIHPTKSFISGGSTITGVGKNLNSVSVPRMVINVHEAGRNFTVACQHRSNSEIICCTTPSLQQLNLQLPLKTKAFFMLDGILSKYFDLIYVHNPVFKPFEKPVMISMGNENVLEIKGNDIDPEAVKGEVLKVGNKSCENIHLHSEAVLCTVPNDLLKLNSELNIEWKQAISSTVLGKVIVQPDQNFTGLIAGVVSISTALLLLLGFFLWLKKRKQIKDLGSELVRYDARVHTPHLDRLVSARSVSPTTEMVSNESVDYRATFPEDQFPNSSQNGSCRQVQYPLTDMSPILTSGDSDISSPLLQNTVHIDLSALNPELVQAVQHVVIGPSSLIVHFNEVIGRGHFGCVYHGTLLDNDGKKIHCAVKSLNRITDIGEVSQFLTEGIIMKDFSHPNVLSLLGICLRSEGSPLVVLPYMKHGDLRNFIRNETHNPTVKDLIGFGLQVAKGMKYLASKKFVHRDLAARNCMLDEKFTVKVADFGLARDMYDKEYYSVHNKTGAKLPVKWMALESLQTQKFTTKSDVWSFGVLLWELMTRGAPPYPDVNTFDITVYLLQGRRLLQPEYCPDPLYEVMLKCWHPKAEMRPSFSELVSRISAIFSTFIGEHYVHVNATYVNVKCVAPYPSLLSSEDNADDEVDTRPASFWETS
# Chain of ROS1 (P08922 28-2347): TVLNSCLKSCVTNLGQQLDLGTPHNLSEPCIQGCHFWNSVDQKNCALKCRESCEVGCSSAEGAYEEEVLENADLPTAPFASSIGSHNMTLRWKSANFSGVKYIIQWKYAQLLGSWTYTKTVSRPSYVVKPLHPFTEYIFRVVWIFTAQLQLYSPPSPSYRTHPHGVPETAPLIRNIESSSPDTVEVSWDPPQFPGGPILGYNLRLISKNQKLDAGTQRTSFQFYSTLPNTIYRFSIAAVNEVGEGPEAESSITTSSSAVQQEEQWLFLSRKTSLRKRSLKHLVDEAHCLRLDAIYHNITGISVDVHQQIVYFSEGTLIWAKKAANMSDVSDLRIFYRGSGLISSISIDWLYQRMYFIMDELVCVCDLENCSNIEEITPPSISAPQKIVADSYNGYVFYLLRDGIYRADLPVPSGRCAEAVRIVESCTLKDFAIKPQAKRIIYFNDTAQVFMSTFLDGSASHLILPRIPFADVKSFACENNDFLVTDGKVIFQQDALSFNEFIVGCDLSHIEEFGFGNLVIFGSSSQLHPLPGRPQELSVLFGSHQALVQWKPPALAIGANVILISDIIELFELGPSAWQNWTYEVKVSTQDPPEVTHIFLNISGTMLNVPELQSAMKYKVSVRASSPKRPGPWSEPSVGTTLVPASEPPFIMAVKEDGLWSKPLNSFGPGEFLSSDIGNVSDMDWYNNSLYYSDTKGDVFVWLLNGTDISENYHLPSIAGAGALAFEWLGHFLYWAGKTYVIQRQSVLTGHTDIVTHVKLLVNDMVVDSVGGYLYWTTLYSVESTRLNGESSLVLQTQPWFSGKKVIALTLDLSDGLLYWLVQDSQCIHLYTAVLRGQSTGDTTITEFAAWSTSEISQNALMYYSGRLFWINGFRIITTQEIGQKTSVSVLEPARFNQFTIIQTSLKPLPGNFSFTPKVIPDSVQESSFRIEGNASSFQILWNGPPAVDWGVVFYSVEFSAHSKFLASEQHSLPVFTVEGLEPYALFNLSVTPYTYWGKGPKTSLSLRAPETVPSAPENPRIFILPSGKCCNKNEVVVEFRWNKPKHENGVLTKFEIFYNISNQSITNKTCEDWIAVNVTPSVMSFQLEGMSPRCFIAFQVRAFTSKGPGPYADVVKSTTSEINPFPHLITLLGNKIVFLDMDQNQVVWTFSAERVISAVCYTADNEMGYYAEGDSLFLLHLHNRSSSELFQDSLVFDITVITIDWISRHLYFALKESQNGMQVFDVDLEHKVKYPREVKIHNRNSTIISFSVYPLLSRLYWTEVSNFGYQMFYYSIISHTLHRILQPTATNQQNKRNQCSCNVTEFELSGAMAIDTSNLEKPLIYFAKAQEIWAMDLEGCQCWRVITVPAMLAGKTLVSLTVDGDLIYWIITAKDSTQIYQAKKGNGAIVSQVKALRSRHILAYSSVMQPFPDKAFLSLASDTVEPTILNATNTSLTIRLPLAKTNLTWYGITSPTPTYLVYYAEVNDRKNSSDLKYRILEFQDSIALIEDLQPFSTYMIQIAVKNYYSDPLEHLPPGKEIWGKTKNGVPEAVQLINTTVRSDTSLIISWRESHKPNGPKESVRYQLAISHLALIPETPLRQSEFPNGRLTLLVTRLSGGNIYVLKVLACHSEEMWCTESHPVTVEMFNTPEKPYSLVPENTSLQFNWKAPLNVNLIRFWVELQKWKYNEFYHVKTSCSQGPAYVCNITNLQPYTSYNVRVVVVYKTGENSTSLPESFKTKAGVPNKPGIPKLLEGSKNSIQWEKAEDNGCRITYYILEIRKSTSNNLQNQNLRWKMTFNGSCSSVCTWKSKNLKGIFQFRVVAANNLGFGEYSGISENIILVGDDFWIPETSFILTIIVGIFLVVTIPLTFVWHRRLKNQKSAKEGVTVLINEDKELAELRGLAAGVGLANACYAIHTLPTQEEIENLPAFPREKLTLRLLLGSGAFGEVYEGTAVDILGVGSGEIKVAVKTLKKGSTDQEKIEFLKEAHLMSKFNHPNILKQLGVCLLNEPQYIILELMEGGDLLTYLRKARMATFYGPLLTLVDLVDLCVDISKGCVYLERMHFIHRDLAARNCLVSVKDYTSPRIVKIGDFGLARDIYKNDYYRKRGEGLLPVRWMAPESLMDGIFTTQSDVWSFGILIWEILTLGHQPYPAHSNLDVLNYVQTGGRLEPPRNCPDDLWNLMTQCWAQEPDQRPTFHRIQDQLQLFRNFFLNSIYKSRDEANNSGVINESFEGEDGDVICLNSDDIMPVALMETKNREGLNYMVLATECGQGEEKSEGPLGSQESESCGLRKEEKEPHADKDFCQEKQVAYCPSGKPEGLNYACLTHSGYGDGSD
IC50 (ROS1) [nM],inhibition at 1 µM (ROS1) [%],IC50 (ALK^WT) [nM],inhibition at 1 µM (ALK^WT) [%],inhibition at 1 µM (c-MET) [%],"IC50 ([1]; Homo sapiens, HCC78, 72 h) [µM]","IC50 ([2]; Homo sapiens, NCI-H3122, 72 h) [µM]",Molecule,further results
173,101,407,90,5,28.7 ± 5.8,152 ± 44.4,"C[C@@H](Oc1cc(-c2ccnn2C)cnc1N)c1ccccc1 [A01, (R)-5–(1-methyl-1H-pyrazol-5-yl)-3–(1-phenylethoxy)pyridin-2-amine]",–
99.5,101,458,65,2,36.4 ± 3.7,149 ± 18.5,"C[C@@H](Oc1cc(-c2cnn(C)c2)cnc1N)c1ccccc1 [A02, (R)-5–(1-methyl-1H-pyrazol-4-yl)-3–(1-phenylethoxy)pyridin-2-amine]",–
317,85,454,65,14,50.5 ± 14,101 ± 22.8,"CCn1cc(-c2cnc(N)c(O[C@H](C)c3ccccc3)c2)cn1 [A03, (R)-5–(1-ethyl-1H-pyrazol-4-yl)-3–(1-phenylethoxy)pyridin-2-amine]",–
964,64,1540,37,5,–,–,"CCCn1cc(-c2cnc(N)c(O[C@H](C)c3ccccc3)c2)cn1 [A04, (R)-3–(1-phenylethoxy)-5–(1-propyl-1H-pyrazol-4-yl)pyridin-2-amine]",fold decrease in ROS1 potency compared to A02 (ROS1; 963.9 nM vs. 99.5 nM): ~10 fold
–,43,–,18,-10,278 ± 53.1,168 ± 39.4,"C[C@@H](Oc1cc(-c2cccn2C)cnc1N)c1ccccc1F [A05, (R)-3–(1-(2-fluorophenyl)ethoxy)-5–(1-methyl-1H-pyrrol-2-yl)pyridin-2-amine]",–
83.1,100,231,73,11,16 ± 1.2,10.2 ± 0.1,"C[C@@H](Oc1cc(-c2cnn(C)c2)cnc1N)c1ccccc1F [A06, (R)-3–(1-(2-fluorophenyl)ethoxy)-5–(1-methyl-1H-pyrazol-4-yl)pyridin-2-amine]",–
81.4,87,–,69,18,–,–,"CCn1cc(-c2cnc(N)c(O[C@H](C)c3ccccc3F)c2)cn1 [A07, (R)-5–(1-ethyl-1H-pyrazol-4-yl)-3–(1-(2-fluorophenyl)ethoxy)pyridin-2-amine]",–
120,91,–,58,22,13.9 ± 6.3,36.8 ± 2.5,"CCCn1cc(-c2cnc(N)c(O[C@H](C)c3ccccc3F)c2)cn1 [A08, (R)-3–(1-(2-fluorophenyl)ethoxy)-5–(1-propyl-1H-pyrazol-4-yl)pyridin-2-amine]",–
103,81,–,30,0,33.9 ± 1.8,186 ± 8.6,"C[C@@H](Oc1cc(-c2cccn2C)cnc1N)c1ccccc1-c1ccnn1C [B01, (R)-3–(1-(2–(1-methyl-1H-pyrazol-5-yl)phenyl)ethoxy)-5–(1-methyl-1H-pyrrol-2-yl)pyridin-2-amine]",–
216,86,–,30,6,64.8 ± 4.5,689 ± 57.2,"C[C@@H](Oc1cc(-c2ccnn2C)cnc1N)c1ccccc1-c1ccnn1C [B02, (R)-5–(1-methyl-1H-pyrazol-5-yl)-3–(1-(2–(1-methyl-1H-pyrazol-5-yl)phenyl)ethoxy)pyridin-2-amine]",–
374,74,286,88,21,52.7 ± 15.2,207 ± 40.7,"C[C@@H](Oc1cc(-c2cnn(C)c2)cnc1N)c1ccccc1-c1ccnn1C [B03, (R)-5–(1-methyl-1H-pyrazol-4-yl)-3–(1-(2–(1-methyl-1H-pyrazol-5-yl)phenyl)ethoxy)pyridin-2-amine]",–
80.5,–,–,59,28,28 ± 4.5,128 ± 25.5,"CCn1cc(-c2cnc(N)c(O[C@H](C)c3ccccc3-c3ccnn3C)c2)cn1 [B04, (R)-5–(1-ethyl-1H-pyrazol-4-yl)-3–(1-(2–(1-methyl-1H-pyrazol-5-yl)phenyl)ethoxy)pyridin-2-amine]",–
260,90,1160,42,26,21.3 ± 0.7,96.2 ± 6.9,"CCCn1cc(-c2cnc(N)c(O[C@H](C)c3ccccc3-c3ccnn3C)c2)cn1 [B05, (R)-3–(1-(2–(1-methyl-1H-pyrazol-5-yl)phenyl)ethoxy)-5–(1-propyl-1H-pyrazol-4-yl)pyridin-2-amine]",–
192,90,–,44,9,7.1 ± 0.7,24.8 ± 5,"C[C@@H](Oc1cc(-c2cccn2C)cnc1N)c1ccccc1-c1ccccc1 [B06, (R)-3–(1-([1,1'-biphenyl]-2-yl)ethoxy)-5–(1-methyl-1H-pyrrol-2-yl)pyridin-2-amine]",–
65.7,99,217,99,8,16.9 ± 1.4,14.3 ± 3.6,"C[C@@H](Oc1cc(-c2ccnn2C)cnc1N)c1ccccc1-c1ccccc1 [B07, (R)-3–(1-([1,1'-biphenyl]-2-yl)ethoxy)-5–(1-methyl-1H-pyrazol-5-yl)pyridin-2-amine]",–
–,99,75.9,92,50,11.4 ± 0.5,8.5 ± 1.2,"CCn1cc(-c2cnc(N)c(O[C@H](C)c3ccccc3-c3ccccc3)c2)cn1 [B09, (R)-3–(1-([1,1'-biphenyl]-2-yl)ethoxy)-5–(1-ethyl-1H-pyrazol-4-yl)pyridin-2-amine]",–
148,98,–,82,60,7.7 ± 1.2,13.9 ± 1.2,"CCCn1cc(-c2cnc(N)c(O[C@H](C)c3ccccc3-c3ccccc3)c2)cn1 [B10, (R)-3–(1-([1,1'-biphenyl]-2-yl)ethoxy)-5–(1-propyl-1H-pyrazol-4-yl)pyridin-2-amine]",–
–,–,–,–,–,–,–,"(R)-5–(6-amino-5–(1-(3'-methyl-[1,1'-biphenyl]-2-yl)ethoxy)pyridin-3-yl)-1'-methylspiro[indoline-3,4'-piperidin]-2-one [C05]","ROS1 Inhibition (1μM) (ROS1; [3]): 100%; IC50 (ROS1; [4]): 77.3 nM; ALK Inhibition (1μM) (ALK^WT): 101%; IC50 (ALK^WT; read-out: ALK IC50): 79.7 nM; c-MET Inhibition (1μM) (c-MET): 59%; IC50 [1, 5]: 4.6 ± 0.1 µM; IC50 [2, 5]: 2.4 ± 0.1 µM"
–,–,–,–,–,–,–,"(R)-5–(6-amino-5–(1-(4'-(trifluoromethoxy)-[1,1'-biphenyl]-2-yl)ethoxy)pyridin-3-yl)-1'-methylspiro[indoline-3,4'-piperidin]-2-one [C07]","ROS1 Inhibition (1μM) (ROS1; [3]): 95%; IC50 (ROS1; [4]): 73.6 nM; ALK Inhibition (1μM) (ALK^WT): 55%; IC50 (ALK^WT; read-out: ALK IC50): 414 nM; c-MET Inhibition (1μM) (c-MET): 18%; IC50 [1, 5]: 4.2 ± 0.2 µM; IC50 [2, 5]: 2.4 ± 0.1 µM"
–,–,–,–,–,–,–,"(R)-5–(6-amino-5–(1-(4'-fluoro-[1,1'-biphenyl]-2-yl)ethoxy)pyridin-3-yl)-1'-methylspiro[indoline-3,4'-piperidin]-2-one [C06]","ROS1 Inhibition (1μM) (ROS1; average of two independent experiments, 1 µM): 98%; IC50 (ROS1; [4]): 31.2 nM; ALK Inhibition (1μM) (ALK^WT; 1 µM): 91%; IC50 (ALK^WT; read-out: ALK IC50): 214 nM; c-MET Inhibition (1μM) (c-MET; 1 µM): 58%; IC50 [1, 5]: 3.1 ± 0.3 µM; IC50 [2, 5]: 1.4 ± 0.1 µM"
–,–,–,–,–,–,–,"(R)-5–(6-amino-5–(1-(4'-methyl-[1,1'-biphenyl]-2-yl)ethoxy)pyridin-3-yl)-1'-methylspiro[indoline-3,4'-piperidin]-2-one [C04]","ROS1 Inhibition (1μM) (ROS1; [3]): 100%; IC50 (ROS1; [4]): 16.5 nM; ALK Inhibition (1μM) (ALK^WT): 100%; IC50 (ALK^WT; read-out: ALK IC50): 38.8 nM; c-MET Inhibition (1μM) (c-MET): 43%; IC50 [2, 5]: 2.4 ± 0.3 µM"
